Laboratory results: PubChem BioAssay (NCI)
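Cultured in 96-well plates, cells were exposed to test compound for 48 hours across five concentrations. GI50 is the concentration that inhibits growth by half. TGI marks complete inhibition of growth.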

Legend:
Assay in all cases: inhibition of tumour cell growth, NCI panel, 48 h
SF-268 CNS = test system: SF-268 CNS
MCF7 breast = test system: MCF7 breast
COLO 205 colon = test system: COLO 205 colon
SK-MEL-28 melanoma = test system: SK-MEL-28 melanoma
NCI-H522 lung = test system: NCI-H522 lung
HS 578T breast = test system: HS 578T breast
SK-MEL-2 melanoma = test system: SK-MEL-2 melanoma
LOX IMVI melanoma = test system: LOX IMVI melanoma
T-47D breast = test system: T-47D breast
SF-539 CNS = test system: SF-539 CNS
HL-60(TB) leukemia = test system: HL-60(TB) leukemia
HOP-92 NSCLC = test system: HOP-92 NSCLC
HCT-116 colon = test system: HCT-116 colon
ACHN renal = test system: ACHN renal
RPMI-8226 leukemia = test system: RPMI-8226 leukemia
HOP-62 NSCLC = test system: HOP-62 NSCLC
SF-295 CNS = test system: SF-295 CNS
SNB-75 CNS = test system: SNB-75 CNS
NCI-H226 lung = test system: NCI-H226 lung
K-562 leukemia = test system: K-562 leukemia
A549 NSCLC = test system: A549 NSCLC
U251 CNS = test system: U251 CNS
IGROV1 ovarian = test system: IGROV1 ovarian
OVCAR-3 ovarian = test system: OVCAR-3 ovarian
SNB-19 CNS = test system: SNB-19 CNS
UO-31 renal = test system: UO-31 renal
MDA-MB-435 = test system: MDA-MB-435
KM12 colon = test system: KM12 colon
SW-620 colon = test system: SW-620 colon
MOLT-4 leukemia = test system: MOLT-4 leukemia
NCI-H460 lung = test system: NCI-H460 lung
MALME-3M melanoma = test system: MALME-3M melanoma
DU-145 prostate = test system: DU-145 prostate
HCC-2998 colon = test system: HCC-2998 colon
EKVX NSCLC = test system: EKVX NSCLC
UACC-257 melanoma = test system: UACC-257 melanoma
OVCAR-4 ovarian = test system: OVCAR-4 ovarian
MDA-MB-231 breast = test system: MDA-MB-231 breast
TK-10 renal = test system: TK-10 renal
SK-OV-3 ovarian = test system: SK-OV-3 ovarian
RXF 393 renal = test system: RXF 393 renal
HCT-15 colon = test system: HCT-15 colon
786-0 renal = test system: 786-0 renal
CAKI-1 renal = test system: CAKI-1 renal
CCRF-CEM leukemia = test system: CCRF-CEM leukemia
BT-549 breast = test system: BT-549 breast
NCI-H23 lung = test system: NCI-H23 lung
A498 renal = test system: A498 renal
MDA-MB-468 breast = test system: MDA-MB-468 breast
SR leukemia = test system: SR leukemia
HT29 colon = test system: HT29 colon
NCI/ADR-RES ovarian = test system: NCI/ADR-RES ovarian
SK-MEL-5 melanoma = test system: SK-MEL-5 melanoma
SN12C renal = test system: SN12C renal
UACC-62 melanoma = test system: UACC-62 melanoma
M14 melanoma = test system: M14 melanoma
OVCAR-8 ovarian = test system: OVCAR-8 ovarian
OVCAR-5 ovarian = test system: OVCAR-5 ovarian
PC-3 prostate = test system: PC-3 prostate

CN1CCN(c2ccc3c(c2)nc(NNC(=O)c2cnccn2)c2cccn23)CC1 was tested. Which GI50 (SF-268 CNS) did it give?
The GI50 was 0.479 µM.

And the TGI (SF-268 CNS)?
The TGI was 13.2 µM.

And the GI50 (MCF7 breast)?
Its GI50 is 0.697 µM.

What about the TGI (MCF7 breast) of the same molecule?
The TGI was 7.5 µM.

What about the GI50 (COLO 205 colon) of the same molecule?
Its GI50 is 0.445 µM.

And the TGI (COLO 205 colon)?
Its TGI is 9.94 µM.

What about the GI50 (SK-MEL-28 melanoma) of the same molecule?
Its GI50 is 0.719 µM.

And the TGI (SK-MEL-28 melanoma)?
Its TGI is 12.1 µM.

And the GI50 (NCI-H522 lung)?
Its GI50 is 0.944 µM.

What about the TGI (NCI-H522 lung) of the same molecule?
Its TGI is 6.69 µM.

What about the GI50 (HS 578T breast) of the same molecule?
Its GI50 is 3.6 µM.

And the TGI (HS 578T breast)?
Its TGI is 70.3 µM.

And the GI50 (SK-MEL-2 melanoma)?
The GI50 was 1.21 µM.

What about the TGI (SK-MEL-2 melanoma) of the same molecule?
Its TGI is 6.14 µM.

And the GI50 (LOX IMVI melanoma)?
Its GI50 is 0.203 µM.

And the TGI (LOX IMVI melanoma)?
Its TGI is 6.25 µM.

And the GI50 (T-47D breast)?
The GI50 was 1.72 µM.

What about the TGI (T-47D breast) of the same molecule?
Its TGI is 9.44 µM.

What about the GI50 (SF-539 CNS) of the same molecule?
The GI50 was 0.645 µM.

What about the TGI (SF-539 CNS) of the same molecule?
Its TGI is 6.83 µM.

What about the GI50 (HL-60(TB) leukemia) of the same molecule?
The GI50 was 0.175 µM.

What about the TGI (HL-60(TB) leukemia) of the same molecule?
The TGI was 1.65 µM.

What about the GI50 (HOP-92 NSCLC) of the same molecule?
The GI50 was 0.564 µM.

What about the TGI (HOP-92 NSCLC) of the same molecule?
The TGI was 5.54 µM.

And the GI50 (HCT-116 colon)?
The GI50 was 0.259 µM.

And the TGI (HCT-116 colon)?
Its TGI is 5.61 µM.

And the GI50 (ACHN renal)?
Its GI50 is 0.256 µM.

What about the TGI (ACHN renal) of the same molecule?
The TGI was 1.74 µM.

And the GI50 (RPMI-8226 leukemia)?
The GI50 was 0.756 µM.

What about the TGI (RPMI-8226 leukemia) of the same molecule?
The TGI was 12.7 µM.

And the GI50 (HOP-62 NSCLC)?
The GI50 was 0.361 µM.

And the TGI (HOP-62 NSCLC)?
Its TGI is 11.3 µM.

And the GI50 (SF-295 CNS)?
Its GI50 is 0.229 µM.

What about the TGI (SF-295 CNS) of the same molecule?
The TGI was 3.15 µM.

What about the GI50 (SNB-75 CNS) of the same molecule?
Its GI50 is 2.93 µM.

And the TGI (SNB-75 CNS)?
The TGI was 18 µM.

And the GI50 (NCI-H226 lung)?
The GI50 was 0.801 µM.

And the TGI (NCI-H226 lung)?
Its TGI is 3.12 µM.

What about the GI50 (K-562 leukemia) of the same molecule?
The GI50 was 0.631 µM.

And the TGI (K-562 leukemia)?
The TGI was 11.6 µM.

And the GI50 (A549 NSCLC)?
The GI50 was 0.768 µM.

What about the TGI (A549 NSCLC) of the same molecule?
Its TGI is 12.1 µM.

What about the GI50 (U251 CNS) of the same molecule?
The GI50 was 0.37 µM.

What about the TGI (U251 CNS) of the same molecule?
Its TGI is 11.7 µM.

And the GI50 (IGROV1 ovarian)?
Its GI50 is 0.413 µM.

And the TGI (IGROV1 ovarian)?
The TGI was 10.7 µM.

And the GI50 (OVCAR-3 ovarian)?
The GI50 was 0.406 µM.

What about the TGI (OVCAR-3 ovarian) of the same molecule?
Its TGI is 5.84 µM.

And the GI50 (SNB-19 CNS)?
Its GI50 is 0.812 µM.

What about the TGI (SNB-19 CNS) of the same molecule?
Its TGI is 14.6 µM.

What about the GI50 (UO-31 renal) of the same molecule?
The GI50 was 0.0964 µM.

And the TGI (UO-31 renal)?
The TGI was 1.51 µM.

And the GI50 (MDA-MB-435)?
Its GI50 is 1.96 µM.

And the TGI (MDA-MB-435)?
The TGI was 18.4 µM.

And the GI50 (KM12 colon)?
The GI50 was 0.359 µM.

What about the TGI (KM12 colon) of the same molecule?
The TGI was 14.9 µM.

What about the GI50 (SW-620 colon) of the same molecule?
The GI50 was 0.638 µM.

What about the TGI (SW-620 colon) of the same molecule?
Its TGI is 12.6 µM.

And the GI50 (MOLT-4 leukemia)?
The GI50 was 0.244 µM.

And the GI50 (NCI-H460 lung)?
The GI50 was 0.229 µM.

And the TGI (NCI-H460 lung)?
Its TGI is 4.72 µM.

And the GI50 (MALME-3M melanoma)?
Its GI50 is 1.62 µM.

What about the TGI (MALME-3M melanoma) of the same molecule?
The TGI was 6.99 µM.

What about the GI50 (DU-145 prostate) of the same molecule?
Its GI50 is 0.912 µM.

And the TGI (DU-145 prostate)?
Its TGI is 8.58 µM.

And the GI50 (HCC-2998 colon)?
The GI50 was 0.453 µM.

And the TGI (HCC-2998 colon)?
The TGI was 5.8 µM.

What about the GI50 (EKVX NSCLC) of the same molecule?
The GI50 was 0.277 µM.

And the TGI (EKVX NSCLC)?
The TGI was 3.47 µM.

What about the GI50 (UACC-257 melanoma) of the same molecule?
Its GI50 is 2.15 µM.

What about the TGI (UACC-257 melanoma) of the same molecule?
Its TGI is 7.1 µM.

And the GI50 (OVCAR-4 ovarian)?
Its GI50 is 0.605 µM.

And the TGI (OVCAR-4 ovarian)?
Its TGI is 12.9 µM.

What about the GI50 (MDA-MB-231 breast) of the same molecule?
Its GI50 is 0.607 µM.

And the TGI (MDA-MB-231 breast)?
The TGI was 6.95 µM.

What about the GI50 (TK-10 renal) of the same molecule?
Its GI50 is 0.158 µM.

What about the TGI (TK-10 renal) of the same molecule?
Its TGI is 2.32 µM.

And the GI50 (SK-OV-3 ovarian)?
The GI50 was 0.538 µM.

What about the TGI (SK-OV-3 ovarian) of the same molecule?
The TGI was 5.02 µM.

And the GI50 (RXF 393 renal)?
Its GI50 is 1.06 µM.

What about the TGI (RXF 393 renal) of the same molecule?
Its TGI is 3.35 µM.

And the GI50 (HCT-15 colon)?
Its GI50 is 0.109 µM.

What about the TGI (HCT-15 colon) of the same molecule?
Its TGI is 1.79 µM.

What about the GI50 (786-0 renal) of the same molecule?
The GI50 was 0.401 µM.

And the TGI (786-0 renal)?
The TGI was 2.4 µM.

What about the GI50 (CAKI-1 renal) of the same molecule?
Its GI50 is 0.463 µM.

And the TGI (CAKI-1 renal)?
Its TGI is 5.27 µM.

And the GI50 (CCRF-CEM leukemia)?
Its GI50 is 0.182 µM.

What about the TGI (CCRF-CEM leukemia) of the same molecule?
Its TGI is 1.98 µM.

And the GI50 (BT-549 breast)?
The GI50 was 0.849 µM.

What about the TGI (BT-549 breast) of the same molecule?
Its TGI is 13.4 µM.

And the GI50 (NCI-H23 lung)?
The GI50 was 0.801 µM.

And the TGI (NCI-H23 lung)?
The TGI was 12.3 µM.

What about the GI50 (A498 renal) of the same molecule?
The GI50 was 1.77 µM.

What about the TGI (A498 renal) of the same molecule?
The TGI was 3.32 µM.

And the GI50 (MDA-MB-468 breast)?
The GI50 was 0.324 µM.

What about the TGI (MDA-MB-468 breast) of the same molecule?
The TGI was 2.37 µM.

What about the GI50 (SR leukemia) of the same molecule?
Its GI50 is 0.16 µM.

And the GI50 (HT29 colon)?
The GI50 was 0.505 µM.

What about the TGI (HT29 colon) of the same molecule?
Its TGI is 4.56 µM.

What about the GI50 (NCI/ADR-RES ovarian) of the same molecule?
The GI50 was 0.829 µM.

And the TGI (NCI/ADR-RES ovarian)?
The TGI was 2.97 µM.

And the GI50 (SK-MEL-5 melanoma)?
Its GI50 is 1.09 µM.

What about the TGI (SK-MEL-5 melanoma) of the same molecule?
Its TGI is 2.77 µM.

And the GI50 (SN12C renal)?
Its GI50 is 0.583 µM.

What about the TGI (SN12C renal) of the same molecule?
The TGI was 11.8 µM.

What about the GI50 (UACC-62 melanoma) of the same molecule?
Its GI50 is 0.444 µM.

And the TGI (UACC-62 melanoma)?
Its TGI is 2.71 µM.

And the GI50 (M14 melanoma)?
Its GI50 is 0.517 µM.

And the TGI (M14 melanoma)?
The TGI was 3.87 µM.

What about the GI50 (OVCAR-8 ovarian) of the same molecule?
Its GI50 is 0.383 µM.

What about the TGI (OVCAR-8 ovarian) of the same molecule?
The TGI was 7.01 µM.

What about the GI50 (OVCAR-5 ovarian) of the same molecule?
The GI50 was 1.18 µM.

What about the TGI (OVCAR-5 ovarian) of the same molecule?
Its TGI is 12.1 µM.

What about the GI50 (PC-3 prostate) of the same molecule?
The GI50 was 0.386 µM.

What about the TGI (PC-3 prostate) of the same molecule?
The TGI was 8.51 µM.
